Among the data in paper PMC5697638, “Identification of a Potent Phosphoinositide 3‐Kinase Pan Inhibitor Displaying a Strategic Carboxylic Acid Group and Development of Its Prodrugs” (Chemmedchem, 2017) are IC50 values, retold here.

Broadly, the IC50 is the concentration that gives 50% inhibition.

The assay deals with T1, hPI3K‐c2γ (PIK3C2G) (Homo sapiens, UniProt O75747).
T1 construct: purchased ProQinase, Germany 1207‐0000‐1
T1 sequence (O75747 1-1486): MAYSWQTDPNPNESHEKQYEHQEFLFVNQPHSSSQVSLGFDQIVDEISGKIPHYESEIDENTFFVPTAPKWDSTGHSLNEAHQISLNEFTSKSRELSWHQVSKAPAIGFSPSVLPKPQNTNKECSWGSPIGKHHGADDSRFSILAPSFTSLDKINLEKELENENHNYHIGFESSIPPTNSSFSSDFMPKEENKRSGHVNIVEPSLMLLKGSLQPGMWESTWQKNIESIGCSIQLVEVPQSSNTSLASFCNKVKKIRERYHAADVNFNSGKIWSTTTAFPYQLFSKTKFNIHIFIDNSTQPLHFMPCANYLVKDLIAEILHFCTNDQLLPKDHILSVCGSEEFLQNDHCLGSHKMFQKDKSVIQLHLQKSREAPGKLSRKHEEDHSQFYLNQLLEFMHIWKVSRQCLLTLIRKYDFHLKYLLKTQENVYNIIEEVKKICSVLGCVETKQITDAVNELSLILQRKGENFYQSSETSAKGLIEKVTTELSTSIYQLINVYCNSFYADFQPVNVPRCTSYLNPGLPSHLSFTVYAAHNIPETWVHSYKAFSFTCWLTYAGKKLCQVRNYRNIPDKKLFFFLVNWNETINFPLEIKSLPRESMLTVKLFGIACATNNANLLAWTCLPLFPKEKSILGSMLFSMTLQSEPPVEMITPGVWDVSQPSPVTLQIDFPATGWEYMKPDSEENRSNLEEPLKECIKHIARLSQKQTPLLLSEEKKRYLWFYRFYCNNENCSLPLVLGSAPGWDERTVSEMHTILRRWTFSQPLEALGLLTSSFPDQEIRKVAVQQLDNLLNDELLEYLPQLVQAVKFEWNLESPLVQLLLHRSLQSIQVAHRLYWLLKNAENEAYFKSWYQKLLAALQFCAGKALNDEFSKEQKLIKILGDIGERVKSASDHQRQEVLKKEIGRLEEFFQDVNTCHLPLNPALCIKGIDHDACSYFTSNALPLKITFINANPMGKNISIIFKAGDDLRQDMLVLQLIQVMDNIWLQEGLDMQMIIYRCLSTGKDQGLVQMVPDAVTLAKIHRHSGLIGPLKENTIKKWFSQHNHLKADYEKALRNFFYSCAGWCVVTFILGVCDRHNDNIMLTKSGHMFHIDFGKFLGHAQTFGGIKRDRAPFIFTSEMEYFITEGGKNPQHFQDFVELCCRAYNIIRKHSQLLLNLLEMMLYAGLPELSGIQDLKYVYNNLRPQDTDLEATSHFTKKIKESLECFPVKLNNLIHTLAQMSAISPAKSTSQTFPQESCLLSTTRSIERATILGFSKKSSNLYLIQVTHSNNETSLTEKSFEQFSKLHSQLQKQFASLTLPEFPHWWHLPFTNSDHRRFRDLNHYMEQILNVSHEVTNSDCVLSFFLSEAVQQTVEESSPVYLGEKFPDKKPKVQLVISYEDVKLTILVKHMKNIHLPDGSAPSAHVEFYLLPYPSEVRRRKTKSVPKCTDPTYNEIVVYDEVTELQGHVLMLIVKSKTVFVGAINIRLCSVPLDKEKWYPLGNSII
The assay is described as follows: lipid kinase assay (ADP-Glo), PI3K-C2γ. The note with it: Table 2; mean of at least three determinations, 95 % confidence intervals; read-out: IC50 PI3Kc2γ. The assay is classed as biochemical. The procedure: In vitro selection, lipid kinase assay: To determine the inhibitory activity of the new molecular entities on PI3K enzyme, a lipid kinase assay was performed: recombinant proteins (30 ng), human PI3Kα (PIK3CA/PIK3R1, #1161‐1165‐1 ProQinase–Germany), hPI3Kβ (PIK3CB wt/PIK3R1, #1168‐1165‐1 ProQinase, Germany), hPI3Kγ (PIK3CG, #1163‐0000‐1 ProQinase, Germany), hPI3Kδ (PIK3CD/PIK3R1, #1162–1165‐1 ProQinase, Germany), hPI3K‐C2α (PIK3C2A, #14‐906 Merck Millipore_Merck KGaA, Germany), hPI3K‐C2β (PIK3C2B, #14‐907 Merck Millipore_Merck KGaA, Germany), hPI3K‐c2γ (PIK3C2G, #1207‐0000‐1 ProQinase, Germany), and hVps34 (PIK3C3, #1160‐0000‐1 ProQinase, Germany), were incubated in kinase buffer {12.5 μL; 20 mM Tris‐HCl pH 7.5, 10 mM MgCl2, 10 μM ATP, 0.05 mg mL^−1 BSA, 0.5 mM EDTA, 5 mM HEPES pH 7.5, for PI3Kα,PI3Kβ, PI3Kγ, PI3Kδ, PI3KC‐2α, and PI3KC‐2γ; 15 mM MnCl2, 5 mM EGTA, 100 μM ATP, 50 mM HEPES pH 7.5, 100 mM NaCl, and 0.03 % CHAPS for PI3K‐C2β and VPS34 {BSA=bovine serum albumin; EDTA=ethylenediaminetetraacetic acid; HEPES=4‐(2‐hydroxyethyl)‐1‐piperazineethanesulfonic acid; EGTA=ethylene glycol‐bis(2‐aminoethylether)‐N,N,N′,N′‐tetraacetic acid; CHAPS=3‐[(3‐cholamidopropyl)dimethylammonio]‐1‐propanesulfonate}. In the reaction, the ATP concentration used for different PI3Ks was defined on the basis of the Michaelis–Menten kinetics of each enzyme, provided by the supplier. […]

As for `O=C(O)c1cccc(Cn2cc(-c3cccc4c(=O)cc(N5CCOCC5)[nH]c34)nn2)c1` [Compound 37, 3‐{[4‐(2‐Morpholino‐4‐oxo‐1,4‐dihydroquinolin‐8‐yl)‐1H‐1,2,3‐triazol‐1‐yl]methyl}benzoic acid], the IC50 was determined as 2800 ± 700 nM.
